Data reported in patent US6509362B2, “N-phenylamide and N-pyridylamide derivatives, method of preparing them and pharmaceutical compositions containing them” (Merck Patent Gesellschaft mit Beschraenkter Haftung, priority 1997, dated 2003).

Legend:
[1] = test system: rabbit fed a 0.5% cholesterol enriched diet; assay: Test C: hypercholesterolemia model, cholesterol-fed rabbit; format: in vivo; conditions: dose 0.1 mg/kg, oral
Experimental: (§1) Test C: hypercholesterolemia model; claim 1 compounds were tested by oral route in animals subjected to a cholesterol-rich diet;

[2] = test system: intestinal absorption of cholesterol; assay: Test B: intestinal absorption of cholesterol in rats; format: in vivo, rat (male Wistar); conditions: Rattus norvegicus; per os, rats fasted 24 h, triton WR 1339 IV, 3H-cholesterol in serum; read-out: ED50 (quantity of compound inhibiting the intestinal absorption of cholesterol by 50%)
Experimental: Test B: measurement of intestinal absorption of cholesterol in rats; […]; one hour later, […]; three hours later, 1 ml of blood was taken from the retro-orbital sinus: the blood radioactivity determined on 0.1 ml of serum represented the measurement of the absorption of ^3H-cholesterol. The results were expressed in effective dose 50 (ED50) in mg per kg of animal and represented the quantity of compound inhibiting the intestinal absorption of cholesterol by 50%.

hepatic ACAT = assay: Test A: in vitro hepatic ACAT inhibition in rat liver microsomes; format: biochemical, rat (male Wistar); conditions: 14C-oleyl coenzyme A, read-out: IC50 (concentration of compound inhibiting the ACAT activity by 50%)
Experimental: Test A: measurement of in vitro hepatic ACAT inhibition in rats: male Wistar rats weighing 220-250 g were sacrificed by cervical dislocation; the liver was removed and homogenised to prepare the microsomal fraction by ultracentrifugation; these microsomes were incubated with ^14C-oleyl coenzyme A according to the method described by P. J. GILLIES et al., Exp. and Mol. Pathol. 1986, 44, 329-339; lipids were extracted from the incubate with a methanol-chloroforme mixture and ^14C-oleyl cholesterol was separated by TLC; the latter represented the measurement of the ACAT activity and the results were expressed in inhibitory concentration 50 (IC50) representing the concentration of compound inhibiting the ACAT activity by 50%.

[3] = test system: male Wistar rat fed a 2.5% cholesterol enriched diet; assay: Test C: hypercholesterolemia model, cholesterol-fed rat; format: in vivo; conditions: dose 0.78 mg/kg, oral
Experimental: as §1

Compound	total cholesterol decreased ([1]; 0.5% cholesterol diet for 15 days, treated simultaneously) [%]	lipoprotein fraction on which the effect was observed ([1]; cholesterol-fed rabbit)	ED50 [2] [mg/kg]	IC50 (hepatic ACAT) [µM]	total cholesterol lowered ([3]; 2.5% cholesterol diet for 8 days, treated for 2 days) [%]	lipoprotein fraction on which the effect was observed ([3]; cholesterol-fed rat)	melting point [°C]
CSc1cc(C)nc(SC)c1NC(=O)CC1=C(c2ccccc2)c2ccccc2OC1 [Example 1, N-[2,4-Dimethylthio-6-methyl-3-pyridyl]-2-(4-phenyl-2H-3-benzo[b]pyranyl)acetamide]	70	mainly observed on VLDL	0.005	0.094	50	mainly observed on VLDL	–
CSc1cc(C)nc(SC)c1NC(=O)CC1=C(c2ccccc2)c2ccccc2CC1 [Example 4]	–	–	0.038	0.074	–	–	218 to 220
CSc1cc(C)nc(SC)c1NC(=O)CC1=C(c2ccc(F)cc2)c2ccccc2OC1 [Example 6]	–	–	0.023	0.031	–	–	234 to 236
CSc1cc(C)nc(SC)c1NC(=O)CC=CC1=C(c2ccccc2)c2ccccc2OC1 [Example 17, N-[2,4-Dimethylthio-6-methyl-3-pyridyl]-4-(4-phenyl-2H-3-benzo[b]pyranyl)but-3-enamide]	–	–	–	–	–	–	204 to 206
